Several values for one entry are separate records, joined by “and”; a condition that tells them apart may be missing. Equal entries are not always repeated.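 Interpolation was linear, between the two tested concentrations surrounding the appropriate level; five concentrations were tested over 48 hours in 96-well plates. GI50 = concentration required for 50% inhibition of growth. TGI is the concentration that stops growth completely.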
Columns and labels:
Experiment in all cases: inhibition of tumour cell growth, NCI panel, 48 h
[1] = test system: HCT-116 colon
[2] = test system: M14 melanoma
[3] = test system: SK-MEL-2 melanoma
[4] = test system: A498 renal
[5] = test system: MDA-MB-231 breast
[6] = test system: RXF 393 renal
[7] = test system: PC-3 prostate
[8] = test system: SF-268 CNS
[9] = test system: HT29 colon
[10] = test system: HCC-2998 colon

Structure (SMILES)	GI50 [1]	TGI [1]	GI50 [2]	TGI [2]	GI50 [3] [µM]	TGI [3]	GI50 [4]	TGI [4]	GI50 [5]	TGI [5]	GI50 [6]	TGI [6]	GI50 [7]	TGI [7]	GI50 [8]	TGI [8]	GI50 [9]	TGI [9]	GI50 [10]	TGI [10]
O=[N+]([O-])c1ccc(-c2nc(-c3ccccc3)c(-c3ccccc3)n2-c2ccccc2)cc1	3.47 µM	14 µM	3.57 µM	16 µM	3.04	8.6 µM	2.81 µM	9.12 µM	2.36 µM	7.04 µM	3.08 µM	9.78 µM	2.74 µM	> 31.1 µM	3.7 µM	17.6 µM	1.75 µM	3.37 µM	2.07 µM	4.1 µM
Cc1cccc(Oc2nccc(-c3c(-c4ccc(F)cc4)ncn3C3CCNCC3)n2)c1C	7.26 µM	> 17.8 µM	4.8 µM	9.01 µM	9.09	> 15.9 µM	6.22 µM	> 15.7 µM	5.42 µM	13.9 µM	3.53 µM	9.17 µM	9.94 µM	> 23.2 µM	13.3 µM	> 25 µM	4.68 µM	10.8 µM	4.22 µM	8.96 µM
CC(C)(C)c1nc2c(o1)C(=O)c1ccccc1C2=O	–	2.87 µM	–	1.97 µM	–	1.83 µM	–	11.5 µM	–	1.97 µM	–	5.54 µM	–	2.22 µM	–	10.5 µM	–	10.7 µM	–	7.39 µM
Cc1cc2cc3cc(C)c(N(C)C)cc3nc2cc1N(C)C	2.12 µM	> 100 µM	3.76 µM	18.4 µM	4.02	75.7 µM	4.32 µM	26.2 µM	2.33 µM	7.59 µM	7.14 µM	31.2 µM	2.4 µM	39.9 µM	3.45 µM	15.1 µM	1.55 µM	23.8 µM	3.61 µM	14.6 µM
CC(=O)OC1CC(n2cc(F)c(=O)[nH]c2=O)OC1CO (configuration not stated)	–	> 100 µM	–	45.6 µM	–	> 100 µM	–	15.5 µM	–	> 100 µM	–	> 100 µM	–	> 100 µM	–	> 73.8 µM	–	> 100 µM	–	8.33 µM
CSc1cnn(CCC#N)c(=O)n1	–	> 100 µM	–	> 100 µM	–	–	–	> 100 µM	–	> 100 µM	–	> 100 µM	–	> 100 µM	–	> 100 µM	–	> 100 µM	–	> 100 µM
CC1/C=C/C=C/C=C/C=C/C=C/C=C/C=C/C(O[C@@H]2O[C@H](C)[C@H](O)[C@@H](O)[C@@H]2N)CC(O)C(C(=O)O)C(O)CC(=O)CC(O)CC(O)CC(O)CC(=O)CCCC(=O)CC(=O)OC1C(C)CC(C)C(O)CC(=O)c1ccc(N)cc1 (some centres not stated)	0.0581 µM and 0.219 µM	0.103 µM and 0.485 µM	0.0574 µM and 0.197 µM	0.11 µM and 0.416 µM	0.267	0.813 µM	0.0512 µM and 0.159 µM	0.0948 µM and 0.32 µM	0.0613 µM and 0.3 µM	0.118 µM and 0.943 µM	0.0469 µM and 0.156 µM	0.0894 µM and 0.304 µM	0.0646 µM and 0.222 µM	0.137 µM and 0.552 µM	0.0565 µM and 0.202 µM	0.102 µM and 0.409 µM	0.0585 µM and 0.345 µM	–	0.058 µM and 0.302 µM	0.104 µM and 1.03 µM
CCCCCCCC/C=C/CCCCCCCCC1=NCCN1CCO	–	–	2.16 µM	5.11 µM	11.9	25.1 µM	2.34 µM	15.5 µM	1.99 µM	4.19 µM	3.88 µM	19.6 µM	2.61 µM	9.14 µM	3.66 µM	16.2 µM	2.16 µM	5.21 µM	14.2 µM	34.2 µM
O=P(O)(O)c1ccccc1 (tested in a mixture with another compound)	–	> 100 µM	–	> 100 µM	–	> 100 µM	–	> 100 µM	–	> 100 µM	–	> 100 µM	–	> 100 µM	–	> 100 µM	–	> 100 µM	–	> 100 µM
CCCCCC(O)C1C(=O)OC(C)C(O)/C=C/C=C/C=C/C=C\C=C(\C)C(O)CC(O)CC(O)CC(O)CC(O)CC(O)CC1O (configuration not stated)	> 100 µM	> 100 µM	> 100 µM	> 100 µM	> 100	> 100 µM	> 100 µM	> 100 µM	> 100 µM	> 100 µM	> 100 µM	> 100 µM	> 100 µM	> 100 µM	> 100 µM	> 100 µM	> 100 µM	> 100 µM	> 100 µM	> 100 µM
C/C(=N\NC(=O)c1ccncc1)c1ccc2ccccc2c1O	–	10.5 µM	–	38.2 µM	–	> 100 µM	–	53.3 µM	–	> 91 µM	–	> 79.6 µM	–	96.9 µM	–	40.8 µM	–	> 58.6 µM	–	53.8 µM
COc1ccc(NC(=O)n2nc(N)c3ccccc32)cc1OC	43.5 µM	> 100 µM	65 µM	> 100 µM	37.2	> 100 µM	30.3 µM	85.4 µM	53.6 µM	> 100 µM	95.2 µM	> 100 µM	35.5 µM	> 100 µM	49.6 µM	> 100 µM	48.2 µM	> 100 µM	61.1 µM	> 100 µM
CC[C@H]1CN2CCc3cc(OC)c(OC)cc3[C@@H]2C[C@@H]1C[C@H]1NCCc2cc(O)c(OC)cc21	–	–	0.00787 µM	0.0222 µM and 0.015 µM	–	0.0493 µM and 0.0294 µM and 0.0532 µM	0.0165 µM and 0.025 µM	0.0461 µM and 0.0583 µM	0.00901 µM	–	–	0.0518 µM and 0.0717 µM	0.0243 µM	–	–	–	–	0.0551 µM and 0.0171 µM and 0.047 µM	–	0.0484 µM and 0.0472 µM
O=C1C(Br)=CC2(C=C1Br)CCN=c1c2c(O)c2nc3ccccc3c3ccnc1c23	0.674 µM	6.15 µM	1.73 µM	8.73 µM	–	–	1.6 µM	6 µM	3.59 µM	12.1 µM	1.11 µM	4.36 µM	1.44 µM	5.27 µM	0.672 µM	1.91 µM	1.07 µM	3.02 µM	9.78 µM	22.3 µM
CC(=O)c1ccc(NC(=O)CSc2nnc(-c3cc(-c4ccc(C)cc4)nc4ccccc34)o2)cc1	2.25 µM	6.1 µM	5.65 µM	> 100 µM	12.3	31.2 µM	2.3 µM	7.5 µM	2.3 µM	5.47 µM	2.01 µM	4.26 µM	4.36 µM	> 100 µM	3.12 µM	> 100 µM	–	–	> 100 µM	> 100 µM
